# T1: Solute carrier family 22 member 2 (Rattus norvegicus, UniProt Q9R0W2)
# T1 sequence (Q9R0W2 whole entry): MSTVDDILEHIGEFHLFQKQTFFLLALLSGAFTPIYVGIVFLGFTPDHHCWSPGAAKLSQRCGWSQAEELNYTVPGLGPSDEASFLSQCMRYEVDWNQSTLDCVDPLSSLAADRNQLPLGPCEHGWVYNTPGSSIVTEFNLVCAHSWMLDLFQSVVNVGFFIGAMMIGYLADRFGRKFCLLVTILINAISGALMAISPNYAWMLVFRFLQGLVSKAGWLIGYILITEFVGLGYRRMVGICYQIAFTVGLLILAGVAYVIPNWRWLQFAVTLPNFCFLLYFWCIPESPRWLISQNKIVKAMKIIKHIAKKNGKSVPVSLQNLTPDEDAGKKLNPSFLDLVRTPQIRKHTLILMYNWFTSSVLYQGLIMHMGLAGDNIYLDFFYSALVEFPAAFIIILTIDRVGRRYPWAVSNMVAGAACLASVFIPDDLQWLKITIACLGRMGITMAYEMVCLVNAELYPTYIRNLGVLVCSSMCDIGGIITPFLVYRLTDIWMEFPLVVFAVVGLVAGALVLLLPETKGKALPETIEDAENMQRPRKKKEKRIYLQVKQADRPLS
# B1: Solute carrier family 22 member 2 (Rattus norvegicus) (protein)
# chain: T1 sequence (Q9R0W2 whole entry)
# Legend:
# [1] = target: T1, Solute carrier family 22 member 2; experiment: TP_TRANSPORTER: inhibition of TEA uptake (apical to cell) in OCT2-expressing NIH3T3 cells; type: functional, cell-based
# [2] = target: T1, Solute carrier family 22 member 2; experiment: TP_TRANSPORTER: uptake (apical to cell) in OCT2-expressing NIH3T3 cells; type: functional, cell-based; conditions: mouse
# [3] = substrate: CC[N+](CC)(CC)CC; experiment: cells, lysate or membranes named
Molecule,Ki [1] [µM],Activity [2],further results
CN/C(=N/CCSCc1nc[nH]c1C)NC#N [CIMETIDINE],198,–,–
CC[n+]1c(CC2C=C(C)N=C(c3ccccc3)N2C)ccc2ccccc21 (stereo not given) [Cyanine-863],0.861,–,–
COc1cccc2c1C(=O)c1c(O)c3c(c(O)c1C2=O)C[C@@](O)(C(C)=O)C[C@@H]3O[C@H]1C[C@H](N)[C@H](O)[C@H](C)O1 [DAUNORUBICIN],–,substrate [+],–
CC[C@]1(O)C[C@@H]2CN(CCc3c([nH]c4ccccc34)[C@@](C(=O)OC)(c3cc4c(cc3OC)N(C)[C@H]3[C@@](O)(C(=O)OC)[C@H](OC(C)=O)[C@]5(CC)C=CCN6CC[C@]43[C@@H]65)C2)C1 [VINBLASTINE],–,substrate [+],–
B1,–,–,Km [3]: 141 µM

# Reference: ChEMBL document CHEMBL2074124, “A transfected cell model for the renal toxin transporter, rOCT2” (Toxicol Sci, 1999)
